In US20260096978A1, “A METHOD FOR PREVENTING, […]/OR TREATING PTGS2-INDUCED SKIN DISORDERS AND RELATED DYSFUNCTIONS” (Symrise AG, priority 2022, published 2026):

Experiments:
PTGS2 [1] = experiment: PTGS2 protein level (IHC staining) in ex vivo human skin biopsies exposed to solar simulated radiation; format: cell-based; conditions: SSR 250 J/cm^2; for PTGS2 protein level, mean as % of non-irradiated vehicle / PTGS2 protein level, Δ versus non-irradiated vehicle / PTGS2 protein level, mean score: day 3; for PTGS2 protein level, mean as % of non-irradiated vehicle: irradiated vehicle 198%; for PTGS2 protein level, Δ versus non-irradiated vehicle: irradiated vehicle Δ 98%; for PTGS2 protein level, mean score: non-irradiated vehicle 1.0302, irradiated vehicle 2.0439
Protocol: (§1) In order to evaluate the efficacy of L-Carnosine on protecting skin from Solar Simulated Radiation (SSR), gene expression and protein level of PTGS2 were analysed. -Ex vivo human skin biopsies were topically treated with L-Carnosine at different concentrations (0.2% and 2.2%), and daily exposed to 250 J/cm^2 of SSR. Gene expression and protein modulation were assessed respectively at day 2 and day3. The radiation dose was selected following the literature, and represent the approximative amount of solar light acquirable under natural conditions by sunbathing.
(§2) Human skin samples were obtained from plastic surgery of healthy patients (aged between 25 and 60), and not intensive sun exposed. The informed consent was obtained from patients and retained by clinic. For the studies, twelve 8 mm diameter punch biopsies were used for each treatment. The skin samples were cultured in modified Williams' E medium at air-liquid interface and, maintained in incubator at the following conditions: 37° C., 5% CO2 and 95% humidity.
(§3) For these studies L-Carnosine was dissolved in vehicle (DMSO/PBS 1:25) at the following concentration 0.2% and 2.2%. Treatments were applied topically and renewed daily as follows: skin biopsies were cleaned with sterile cotton buds and 4 μl of treatment were applied on the biopsy's epidermis. All treated and the control samples were covered with 6 mm diameter delivery membranes.
(§4) Skin irradiation was performed daily, with Suntest XLS+(Ametek Inc., USA) equipped with the provided IR filter and a DAY LIGHT filter, to obtain an emission spectrum between 300 and 800 nm. Every day the skin samples were irradiated with a SSR dose of 250 J/cm^2. Control samples were sham-irradiated under the same conditions.
Skin samples were collected (day 3), fixed in formalin and paraffin embedded. Skin sections were immuno-stained with PTGS2 antibody (Thermo Fisher Scientific Inc., USA). The images of the skin sections were acquired, and the analysis was performed through Image-J application (NIH, USA).

PTGS2 [2] = experiment: PTGS2 gene expression (real-time RT-PCR) in ex vivo human skin biopsies exposed to solar simulated radiation; format: cell-based; conditions: for PTGS2 gene expression, fold-change versus non-irradiated vehicle: SSR 250 J/cm^2 daily, day 2; for PTGS2 gene expression, % of irradiated vehicle: irradiated vehicle = 100; for PTGS2 gene expression, Δ versus irradiated vehicle: irradiated vehicle Δ = 0; for Effect on SSR-induced PTGS2 gene expression, in words: ex vivo human skin, SSR 250 J/cm^2
Protocol: as §1, §2, §3, §4
Human skin biopsies were collected in cryo-vial containing a commercial RNA stabilization solution (RNAlater, Merck KGaA, Germany) and stored at −80° C. Total RNA was extracted using a commercial kit (Rneasy mini-kit, Qiagen GmbH, Germany) according to the manufacturer's instructions. The expression level of selected genes was determined using Real-time RT-PCR method with custom designed gene array (TaqMan® Array 96-Well Fast Plates, Thermo Fisher Scientific Inc., USA).
Gene expression changes were determined in three donors.

For `NCCC(=O)N[C@@H](Cc1cnc[nH]1)C(=O)O` [L-Carnosine], the “PTGS2 protein level, mean as % of non-irradiated vehicle” value (PTGS2 [1]; L-Carnosine 0.2%) was 193%, the “PTGS2 protein level, Δ versus non-irradiated vehicle” value (PTGS2 [1]; L-Carnosine 0.2%) was 93% and the “PTGS2 protein level, mean score” value (PTGS2 [1]; L-Carnosine 0.2%) was 1.9913. The “PTGS2 protein level, mean as % of non-irradiated vehicle” value (PTGS2 [1]; L-Carnosine 2.2%) was 146%, the “PTGS2 protein level, Δ versus non-irradiated vehicle” value (PTGS2 [1]; L-Carnosine 2.2%) was 46% and the “PTGS2 protein level, mean score” value (PTGS2 [1]; L-Carnosine 2.2%) was 1.5091. For the same molecule, the “Effect on SSR-induced PTGS2 protein, in words” value (PTGS2 [1]; ex vivo human skin) was “efficiently reduce the SSR-induced induction of the PTGS2 gene and the PTGS2-protein”, the “PTGS2 gene expression, fold-change versus non-irradiated vehicle” value (PTGS2 [2]; Donor #1, L-Carnosine 0.2% topical, irradiated vehicle 5.3) was 4.2 fold-change and the “PTGS2 gene expression, % of irradiated vehicle” value (“PTGS2 gene expression, %” for short) (PTGS2 [2]; Donor #1, L-Carnosine 0.2%) was 79%. For the same molecule, the “PTGS2 gene expression, Δ versus irradiated vehicle” value (PTGS2 [2]; Donor #1, L-Carnosine 0.2%) was −21, the “PTGS2 gene expression, fold-change versus non-irradiated vehicle” value (PTGS2 [2]; Donor #1, L-Carnosine 2.2% topical, irradiated vehicle 5.3) was 4.0 fold-change and the “PTGS2 gene expression, %” value (PTGS2 [2]; Donor #1, L-Carnosine 2.2%) was 76%. For the same molecule, the “PTGS2 gene expression, Δ versus irradiated vehicle” value (PTGS2 [2]; Donor #1, L-Carnosine 2.2%) was −24, the “PTGS2 gene expression, fold-change versus non-irradiated vehicle” value (PTGS2 [2]; Donor #2, L-Carnosine 0.2% topical, irradiated vehicle 13.9) was 11.3 fold-change and the “PTGS2 gene expression, %” value (PTGS2 [2]; Donor #2, L-Carnosine 0.2%) was 81%. For the same molecule, the “PTGS2 gene expression, Δ versus irradiated vehicle” value (PTGS2 [2]; Donor #2, L-Carnosine 0.2%) was −19, the “PTGS2 gene expression, fold-change versus non-irradiated vehicle” value (PTGS2 [2]; Donor #2, L-Carnosine 2.2% topical, irradiated vehicle 13.9) was 7.7 fold-change and the “PTGS2 gene expression, %” value (PTGS2 [2]; Donor #2, L-Carnosine 2.2%) was 55%. For the same molecule, the “PTGS2 gene expression, Δ versus irradiated vehicle” value (PTGS2 [2]; Donor #2, L-Carnosine 2.2%) was −45, the “PTGS2 gene expression, fold-change versus non-irradiated vehicle” value (PTGS2 [2]; Donor #3, L-Carnosine 0.2% topical, irradiated vehicle 2.0) was 1.4 fold-change and the “PTGS2 gene expression, %” value (PTGS2 [2]; Donor #3, L-Carnosine 0.2%) was 70%. The “PTGS2 gene expression, Δ versus irradiated vehicle” value (PTGS2 [2]; Donor #3, L-Carnosine 0.2%) was −30, the “PTGS2 gene expression, fold-change versus non-irradiated vehicle” value (PTGS2 [2]; Donor #3, L-Carnosine 2.2% topical, irradiated vehicle 2.0) was 1.4 fold-change and the “PTGS2 gene expression, %” value (PTGS2 [2]; Donor #3, L-Carnosine 2.2%) was 72%. The “PTGS2 gene expression, Δ versus irradiated vehicle” value (PTGS2 [2]; Donor #3, L-Carnosine 2.2%) was −28, the “Effect on SSR-induced PTGS2 gene expression, in words” value (PTGS2 [2]) was “efficiently reduce the SSR-induced induction of the PTGS2 gene” and the “Effect on SSR-induced PTGS2 gene expression, in words” value (PTGS2 [2]; listed as L-carnosine) was “reduces the expression of PTGS2”.
